Assays:
Format in all cases: in vivo, Golden Syrian hamster
[1] = Example 2 preventive effect model: body weight and organ weights; settings: hypercholesterol diet (2.5% cholesterol) + 3% by weight cyclodextrin in feed, end of 42 days, N=10
Protocol: (§1) Male LVG golden Syrian hamsters were used for the studies below. The base feed consisted of the food AO4C sold by the company SAFE diet. In the hypercholesterol diets, cholesterol was added (provided by MP Biomedicals)
(§2) Different cyclodextrins were tested • firstly, hydroxypropyl-β-cyclodextrin (HPBCD) sold by the Applicant under the name “KLEPTOSE® HPB” (oral grade); • secondly, methyl-β-cyclodextrin (MCD) “KLEPTOSE® CRYSMEB”, owned by the Applicant.
(§3) In this study, 40 Golden Syrian origin LVG hamsters were divided into 4 groups of 10 and subjected for 6 weeks to the following diets: • “Control” group: normal diet • “Control HC” group: hypercholesterol diet (containing 2.5% by weight of cholesterol) • “HC+Crysmeb” group: hypercholesterol diet (containing 2.5% by weight of cholesterol)+3% by weight of Crysmeb (MCD) • “HC+HPBCD” group: hypercholesterol diet (containing 2.5% by weight of cholesterol)+3% by weight of HPBCD.
At the end of 42 days of study, the animals were sacrificed and the weight of the various organs was measured.

[2] = Example 2 preventive effect model: plasma triglyceride levels
Protocol: as §1, §2, §3

[3] = system: Golden Syrian origin LVG hamsters; test: Example 2 preventive effect model: biochemical data measured in the liver (lipid storage); settings: end of the 42 days of treatment, HC diet + 3% cyclodextrin
Protocol: as §1, §2, §3
Table 3 provides the biochemical data measured in the liver of the animals at the end of the 42 days of treatment.

[4] = system: genes involved in de novo lipodogenesis, de novo cholesterol synthesis and cholesterol removal; test: Example 2: messenger RNA expressed in the liver; settings: liver mRNA at end of study
Protocol: as §1, §2, §3
The levels of expression of different genes involved in de novo lipodogenesis (FIG. 3) and in de novo cholesterol synthesis (FIG. 5) and cholesterol removal (FIG. 6) were measured in the liver at the end of the study, in the 4 groups of animals.

CC(O)COC[C@H]1O[C@@H]2O[C@H]3[C@H](O)[C@@H](O)[C@@H](O[C@H]4[C@H](O)[C@@H](O)[C@@H](O[C@H]5[C@H](O)[C@@H](O)[C@@H](O[C@H]6[C@H](O)[C@@H](O)[C@@H](O[C@H]7[C@H](O)[C@@H](O)[C@@H](O[C@H]8[C@H](O)[C@@H](O)[C@@H](O[C@H]1[C@H](O)[C@H]2O)O[C@@H]8COCC(C)O)O[C@@H]7COCC(C)O)O[C@@H]6COCC(C)O)O[C@@H]5COCC(C)O)O[C@@H]4COCC(C)O)O[C@@H]3COCC(C)O (stereo partly drawn) [HPBCD, hydroxypropyl-β-cyclodextrin]
weight of the adipose tissue of epididymis (Average) [1]: 1.4 | weight of the liver (Average) [1]: 4.5 | plasma triglyceride level TG D0 (Average) ([2]; day 0 (beginning of study), HC diet + 3% cyclodextrin): 3.03 | plasma triglyceride level TG D14 (Average) ([2]; day 14, HC diet + 3% cyclodextrin): 1.28 | plasma triglyceride level TG D28 (Average) ([2]; day 28, HC diet + 3% cyclodextrin): 1.23 | plasma triglyceride level TG D43 (Average) ([2]; day 43 (end of study), HC diet + 3% cyclodextrin): 1.58 | % lipids (g of lipid in liver/animal) (Average) [3]: 1.04 g of lipid in liver/animal | % lipids (g/100 g of liver) D0 (Average) [3]: 23.02 g/100 g of liver | CHOL (mg of chol in liver/animal) (Average) [3]: 154.19 mg of chol in liver/animal | CHOL (mg/g liver) (Average) [3]: 32.98 mg/g liver | TG (mg of TG in liver/animal) (Average) [3]: 92.12 mg of TG in liver/animal | TG (mg/g liver) (Average) [3]: 22.73 mg/g liver | expression of genes involved in de novo lipogenesis (FAS, ACC, SCD1, SREBP1) ([4]; FIG. 3): inhibition of the expression of the SCD1 and ACC genes | expression of genes involved in de novo cholesterol synthesis (SREB2, CYP51a1, HMGCR) ([4]; FIG. 5): little effect

— patent publication US20240000827A1, “COMPOSITIONS COMPRISING METHYL CYCLODEXTRINS FOR THE TREATMENT AND/OR PREVENTION OF HEPATIC STEATOSIS” (ROQUETTE FRERES, priority 2020, published 2024)
